Tested on: influenza virus genome replication and transcription in yeast cells
Assay type: cell-based

C[C@@H]1C[C@@H]([C@H](O)CC2CC(=O)NC(=O)C2)C(=O)[C@@H](C)C1 [cycloheximide]
synthesis level of viral RNAs: markedly reduced

Source: patent publication US20100304375A1, “Influenza Virus Genome Replication and Transcription System in Yeast Cells” (UNIVERSITY OF TSUKUBA, priority 2007, published 2010)
